Results on five compounds are retold here after PMC11490238 (Drug Design, Development and Therapy, 2024).

The conditions of data set [1]: Chinese cancer volunteers; cited from earlier work.
Data set [2] in a line: in vitro. Particulars: human, microsomes, pH 7.4.
For data set [3], the target named is T1, CYP1A2 (Homo sapiens, UniProt P05177).
T1 sequence (P05177 1-516): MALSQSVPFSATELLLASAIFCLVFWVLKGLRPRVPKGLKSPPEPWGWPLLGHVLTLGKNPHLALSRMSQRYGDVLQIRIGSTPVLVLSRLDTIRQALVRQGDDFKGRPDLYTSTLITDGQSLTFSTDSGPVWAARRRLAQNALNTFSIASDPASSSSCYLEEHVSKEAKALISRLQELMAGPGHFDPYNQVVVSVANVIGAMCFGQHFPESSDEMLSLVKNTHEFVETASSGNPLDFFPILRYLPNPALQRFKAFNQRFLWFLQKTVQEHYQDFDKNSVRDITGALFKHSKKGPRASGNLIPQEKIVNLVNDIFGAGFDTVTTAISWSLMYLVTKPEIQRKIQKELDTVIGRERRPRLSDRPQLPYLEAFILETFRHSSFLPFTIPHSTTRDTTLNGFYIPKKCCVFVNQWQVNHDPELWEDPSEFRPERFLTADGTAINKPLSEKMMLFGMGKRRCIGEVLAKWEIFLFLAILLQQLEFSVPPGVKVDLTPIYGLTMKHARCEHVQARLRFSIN
Particulars: calculated from ISEF (0.69) and CLint,rhCYP.

The target in data set [4] is human recombinant CYP3A4 (Homo sapiens, UniProt P08684). Conditions: calculated from ISEF (0.49) and CLint,rhCYP.
human recombinant CYP3A4, sequence (P08684 whole entry): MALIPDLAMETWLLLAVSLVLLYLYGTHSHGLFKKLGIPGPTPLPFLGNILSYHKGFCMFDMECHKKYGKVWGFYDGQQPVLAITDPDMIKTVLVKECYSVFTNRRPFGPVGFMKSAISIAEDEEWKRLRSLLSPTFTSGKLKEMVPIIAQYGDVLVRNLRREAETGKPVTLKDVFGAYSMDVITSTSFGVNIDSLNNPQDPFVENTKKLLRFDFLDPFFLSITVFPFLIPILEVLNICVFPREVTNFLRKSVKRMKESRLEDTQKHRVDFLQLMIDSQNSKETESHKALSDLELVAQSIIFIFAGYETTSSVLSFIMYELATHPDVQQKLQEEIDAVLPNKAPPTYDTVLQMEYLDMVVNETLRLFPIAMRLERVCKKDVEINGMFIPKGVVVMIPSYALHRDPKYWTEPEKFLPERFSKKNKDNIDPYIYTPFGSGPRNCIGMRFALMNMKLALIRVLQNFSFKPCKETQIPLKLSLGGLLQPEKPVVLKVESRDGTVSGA
Data set [5] deals with T2, CYP3A5 (Homo sapiens, UniProt P20815). Particulars: calculated from ISEF (0.43) and CLint,rhCYP.
T2 sequence (P20815 whole entry): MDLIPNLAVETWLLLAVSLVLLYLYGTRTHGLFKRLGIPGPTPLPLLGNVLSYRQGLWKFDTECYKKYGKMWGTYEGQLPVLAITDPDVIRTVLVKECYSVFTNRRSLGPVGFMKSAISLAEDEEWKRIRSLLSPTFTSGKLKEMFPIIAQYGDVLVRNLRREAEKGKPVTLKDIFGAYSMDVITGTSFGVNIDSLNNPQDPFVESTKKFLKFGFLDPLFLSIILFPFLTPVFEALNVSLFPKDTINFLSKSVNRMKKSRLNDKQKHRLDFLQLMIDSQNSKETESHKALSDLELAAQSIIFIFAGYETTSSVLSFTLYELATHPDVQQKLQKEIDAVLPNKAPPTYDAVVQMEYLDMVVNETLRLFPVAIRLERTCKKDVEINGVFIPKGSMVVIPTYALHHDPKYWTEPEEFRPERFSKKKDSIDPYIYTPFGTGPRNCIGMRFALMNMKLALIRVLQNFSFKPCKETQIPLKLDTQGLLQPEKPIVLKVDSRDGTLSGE
The test system of data set [6] is P-gp. Particulars: previous studies and drug package inserts; cited from earlier work.
In data set [7] the target is T2, CYP3A5. The data set can be described thus: biochemical.
Data set [8] deals with HLM. Conditions: anlotinib as substrate in HLMs.
Data set [9] relates to anlotinib metabolism in HLM. As to the kind of experiment: in vitro. Conditions: human, pH 7.4.
Data set [10] concerns the target T1, CYP1A2. As to the kind of experiment: biochemical.
For data set [11] the following is noted: victim erlotinib, cancer subjects; cited from earlier work.

Broadly, the microsomal CLint is the capacity of the preparation to metabolise the compound, expressed as a volume cleared per time. The low end stands for slow turnover, the high end for rapid turnover. Turning to `COc1cc2c(Oc3ccc4[nH]c(C)cc4c3F)ccnc2cc1OCC1(N)CC1` [Anlotinib], the CLpo in data set [1] was 11.014 L/h. In addition, the microsomal CLint in [2] came to 18 µL/min/mg. The “fm, share of anlotinib metabolized by CYP1A2” value in data set [3] was 35%. Also, the “fm, share of anlotinib metabolized by CYP3A4” value in [4] was 35%. For the same compound, the “fm, share of anlotinib metabolized by CYP3A5” value in [5] is 29%. The P-gp substrate characteristics result in data set [6] is recorded as “non-substrate”.

A word on the Ki: it is a measure of affinity in units of concentration, obtained from inhibition or displacement. The low end stands for higher affinity, the high end for lower affinity. With `CC[C@H]1OC(=O)[C@H](C)[C@@H](O[C@H]2C[C@@](C)(OC)[C@@H](O)[C@H](C)O2)[C@H](C)[C@@H](O[C@@H]2O[C@H](C)C[C@H](N(C)C)[C@H]2O)[C@](C)(OC)C[C@@H](C)C(=O)[C@H](C)[C@@H](O)[C@]1(C)O` [clarithromycin], the Ki in [7] was 6.88 µM; in data set [9], 3.02 µM. In addition, in data set [8], the “Inhibition mechanism (Lineweaver-Burk plots)” value (“Inhibition mechanism” below) was “mixed inhibitors”.

On to `CC(=O)N1CCN(c2ccc(OCC3COC(Cn4ccnc4)(c4ccc(Cl)cc4Cl)O3)cc2)CC1` (stereo not drawn) [ketoconazole], for which the “Inhibition mechanism” value in data set [8] is reported as “mixed inhibitors”.

Take `C[C@H]1COc2c(N3CCN(C)CC3)c(F)cc3c(=O)c(C(=O)O)cn1c23` [levofloxacin]: the values for the Ki in data set [10] and in [9] were 4.73 µM and 4.87 µM, respectively. For the same compound, the “Inhibition mechanism” value in data set [8] was “mixed inhibitors”.

In the case of `CO[C@H]1/C=C/O[C@@]2(C)Oc3c(C)c(O)c4c(O)c(c(/C=N/N5CCN(C)CC5)c(O)c4c3C2=O)NC(=O)/C(C)=C\C=C\[C@H](C)[C@H](O)[C@@H](C)[C@@H](O)[C@@H](C)[C@H](OC(C)=O)[C@@H]1C` [rifampicin], in [11], the “AUC0–∞ of erlotinib reduced to (fold) by the labelled perpetrator” value is 0.33 fold and the “Cmax of erlotinib reduced to (fold) by the labelled perpetrator” value is given as 0.71 fold.
